Test results reported in patent US20220002332A1, “SCUTELLARIN AMIDE DERIVATIVES, AND PREPARATION METHODS AND USES THEREOF” (HEILONGJIANG BAYI AGRICULTURAL UNIVERSITY, priority 2020, published 2022).

Tests used:
Assay type in all cases: cell-based
[1] = tested on: human promyelocytic leukemia cell line HL-60; assay: Cell inhibitory activity (CCK-8 anti-proliferative) on HL-60; conditions: HL-60 cells, 72 hours with drug, CCK-8, 450 nm
Experimental: (§1) Cell lines: human promyelocytic leukemia cell line HL-60, human acute leukemia mononuclear macrophage cell line THP-1, human liver cancer cell line HepG-2
(§2) Test Method for Cell Inhibitory Activity
(§3) Cells are routinely cultured in an incubator at 37° C. and 5% CO2 saturated humidity. The culture medium is RPMI1640 cell culture medium containing 10% of heat-inactivated fetal bovine serum, 100 U/mL of penicillin and 100 U/mL of streptomycin. The culture medium is replaced after 48 hours. After the cells adhere to the wall, they are digested with 0.25% trypsin and passage.
(§4) A vial of cells in the logarithmic growth phase and in good condition is digested with a digestion solution (0.125% trypsin+0.01% EDTA); cell count is 2 to 4×10^4 cell/mL; a cell suspension is made and inoculated on a 96-well plate, 100 μL/well, and cultured in a constant temperature CO2 incubator for 24 hours. The medium is replaced; the test drug is added, 100 μL/well, and cultured for 72 hours. CCK-8 is added to a 96-well plate, 50 μL/well, and incubated in an incubator for 4 hours. The supernatant is aspirated; DMSO is added, 200 μL/well, and shaken on a plate shaker for 10 minutes.

[2] = tested on: human liver cancer cell line HepG-2; assay: Cell inhibitory activity (CCK-8 anti-proliferative) on HepG-2; conditions: HepG2, HepG-2 cells, 72 hours with drug, CCK-8, 450 nm
Experimental: as §1, §2, §3, §4

[3] = tested on: human acute leukemia mononuclear macrophage cell line THP-1; assay: Cell inhibitory activity (CCK-8 anti-proliferative) on THP-1; conditions: THP-1 cells, 72 hours with drug, CCK-8, 450 nm
Experimental: as §1, §2, §3, §4

COc1ccc(NC(=O)C2OC(Oc3cc4oc(-c5ccc(OCc6ccccc6)cc5)cc(=O)c4c(O)c3OCc3ccccc3)C(O)C(O)C2O)cc1 (stereo not drawn) [Example 13]
IC50 [1]: 20.9 ± 0.46 µM
IC50 [2]: 23.9 ± 0.88 µM
IC50 [3]: 26.3 ± 0.94 µM

O=C(O)[C@H]1O[C@@H](Oc2cc3oc(-c4ccc(O)cc4)cc(=O)c3c(O)c2O)[C@H](O)[C@@H](O)[C@@H]1O [Scutellarin]
IC50 [1]: 22.7 ± 1.97 µM
IC50 [2]: 56.1 ± 1.23 µM
IC50 [3]: 48.5 ± 2.21 µM

O=C(Nc1cccc(Cl)c1)C1OC(Oc2cc3oc(-c4ccc(OCc5ccccc5)cc4)cc(=O)c3c(O)c2OCc2ccccc2)C(O)C(O)C1O (stereo not drawn) [Example 7]
IC50 [1]: 15.43 ± 0.11 µM
IC50 [2]: 11.2 ± 1.07 µM
IC50 [3]: 13.67 ± 0.13 µM

COc1ccc(-c2cc(=O)c3c(O)c(OC)c(OC4OC(C(=O)Nc5ccc(O)cc5)C(O)C(O)C4O)cc3o2)cc1 (stereo not drawn) [Example 27]
IC50 [1]: 59.3 ± 2.18 µM
IC50 [2]: 51.2 ± 0.87 µM
IC50 [3]: 89.03 ± 0.59 µM

COc1ccc(-c2cc(=O)c3c(O)c(OC)c(OC4OC(C(=O)Nc5cccc(Cl)c5)C(O)C(O)C4O)cc3o2)cc1 (stereo not drawn) [Example 22]
IC50 [1]: 3.37 ± 0.22 µM
IC50 [2]: 5.42 ± 0.53 µM
IC50 [3]: 7.02 ± 0.27 µM

O=C(Nc1ccc(O)cc1)C1OC(Oc2cc3oc(-c4ccc(OCc5ccccc5)cc4)cc(=O)c3c(O)c2OCc2ccccc2)C(O)C(O)C1O (stereo not drawn) [Example 12]
IC50 [1]: 58.9 ± 0.97 µM
IC50 [2]: 36.1 ± 0.67 µM
IC50 [3]: 33.9 ± 0.78 µM

CCCCCCNC(=O)C1OC(Oc2cc3oc(-c4ccc(OC)cc4)cc(=O)c3c(O)c2OC)C(O)C(O)C1O (stereo not drawn) [Example 33]
IC50 [1]: 4.21 ± 0.15 µM
IC50 [2]: 3.69 ± 0.63 µM
IC50 [3]: 5.76 ± 0.33 µM

COc1ccc(-c2cc(=O)c3c(O)c(OC)c(OC4OC(C(=O)NC5CCCCC5)C(O)C(O)C4O)cc3o2)cc1 (stereo not drawn) [Example 34]
IC50 [1]: 28.7 ± 0.54 µM
IC50 [2]: 11.2 ± 0.72 µM
IC50 [3]: 19.1 ± 0.78 µM

COc1ccc(-c2cc(=O)c3c(O)c(OC)c(OC4OC(C(=O)Nc5cccc(OC)c5)C(O)C(O)C4O)cc3o2)cc1 (stereo not drawn) [Example 30]
IC50 [1]: 2.95 ± 0.31 µM
IC50 [2]: 15 ± 0.85 µM
IC50 [3]: 21 ± 0.49 µM

COc1cccc(NC(=O)C2OC(Oc3cc4oc(-c5ccc(OCc6ccccc6)cc5)cc(=O)c4c(O)c3OCc3ccccc3)C(O)C(O)C2O)c1 (stereo not drawn) [Example 15]
IC50 [1]: 4.28 ± 0.31 µM
IC50 [2]: 29.2 ± 0.77 µM
IC50 [3]: 31.62 ± 0.25 µM

O=C(NC1CCCCC1)C1OC(Oc2cc3oc(-c4ccc(OCc5ccccc5)cc4)cc(=O)c3c(O)c2OCc2ccccc2)C(O)C(O)C1O (stereo not drawn) [Example 19]
IC50 [1]: 58.8 ± 2.31 µM
IC50 [2]: 17.6 ± 1.66 µM
IC50 [3]: 16.8 ± 0.19 µM

CC(C)NC(=O)C1OC(Oc2cc3oc(-c4ccc(OCc5ccccc5)cc4)cc(=O)c3c(O)c2OCc2ccccc2)C(O)C(O)C1O (stereo not drawn) [Example 17]
IC50 [1]: 54.1 ± 1.21 µM
IC50 [2]: 39.5 ± 1.03 µM
IC50 [3]: 37.3 ± 0.93 µM

COc1ccc(-c2cc(=O)c3c(O)c(OC)c(OC4OC(C(=O)Nc5ccccc5C)C(O)C(O)C4O)cc3o2)cc1 (stereo not drawn) [Example 24]
IC50 [1]: 64.2 ± 3.41 µM
IC50 [2]: 24.3 ± 0.92 µM
IC50 [3]: 27.8 ± 1.12 µM

COc1ccc(-c2cc(=O)c3c(O)c(OC)c(OC4OC(C(=O)Nc5ccccc5O)C(O)C(O)C4O)cc3o2)cc1 (stereo not drawn) [Example 26]
IC50 [1]: 15.4 ± 0.88 µM
IC50 [2]: 32.1 ± 2.03 µM
IC50 [3]: 40.1 ± 1.57 µM

COc1ccccc1NC(=O)C1OC(Oc2cc3oc(-c4ccc(OCc5ccccc5)cc4)cc(=O)c3c(O)c2OCc2ccccc2)C(O)C(O)C1O (stereo not drawn) [Example 14]
IC50 [1]: 1.7 ± 0.11 µM
IC50 [2]: 6.23 ± 2.03 µM
IC50 [3]: 12.5 ± 0.35 µM

COc1ccc(-c2cc(=O)c3c(O)c(OC)c(OC4OC(C(=O)Nc5ccccc5)C(O)C(O)C4O)cc3o2)cc1 (stereo not drawn) [Example 20]
IC50 [1]: 85.23 ± 0.75 µM
IC50 [2]: 16.8 ± 0.19 µM
IC50 [3]: 63.12 ± 0.46 µM

COc1ccc(-c2cc(=O)c3c(O)c(OC)c(OC4OC(C(=O)Nc5ccc(Cl)cc5)C(O)C(O)C4O)cc3o2)cc1 (stereo not drawn) [Example 21]
IC50 [1]: 4.86 ± 0.21 µM
IC50 [2]: 3.21 ± 0.75 µM
IC50 [3]: 4.47 ± 0.35 µM

O=C(Nc1ccccc1O)C1OC(Oc2cc3oc(-c4ccc(OCc5ccccc5)cc4)cc(=O)c3c(O)c2OCc2ccccc2)C(O)C(O)C1O (stereo not drawn) [Example 11]
IC50 [1]: 2.91 ± 0.69 µM
IC50 [2]: 5.11 ± 0.43 µM
IC50 [3]: 6.11 ± 0.97 µM

COc1ccc(NC(=O)C2OC(Oc3cc4oc(-c5ccc(OC)cc5)cc(=O)c4c(O)c3OC)C(O)C(O)C2O)cc1 (stereo not drawn) [Example 28]
IC50 [1]: 47.2 ± 2.71 µM
IC50 [2]: 39.5 ± 1.03 µM
IC50 [3]: 53.8 ± 3.58 µM

Cc1ccc(NC(=O)C2OC(Oc3cc4oc(-c5ccc(OCc6ccccc6)cc5)cc(=O)c4c(O)c3OCc3ccccc3)C(O)C(O)C2O)cc1 (stereo not drawn) [Example 10]
IC50 [1]: 13 ± 0.28 µM
IC50 [2]: 7.23 ± 0.31 µM
IC50 [3]: 5.75 ± 0.36 µM

CCCCCCNC(=O)C1OC(Oc2cc3oc(-c4ccc(OCc5ccccc5)cc4)cc(=O)c3c(O)c2OCc2ccccc2)C(O)C(O)C1O (stereo not drawn) [Example 18]
IC50 [1]: 59.1 ± 0.91 µM
IC50 [2]: 46.2 ± 2.03 µM
IC50 [3]: 35.8 ± 1.24 µM

COc1ccc(-c2cc(=O)c3c(O)c(OC)c(OC4OC(C(=O)Nc5ccccc5OC)C(O)C(O)C4O)cc3o2)cc1 (stereo not drawn) [Example 29]
IC50 [1]: 53.2 ± 3.47 µM
IC50 [2]: 29 ± 2.26 µM
IC50 [3]: 19.7 ± 0.89 µM

Cc1ccccc1NC(=O)C1OC(Oc2cc3oc(-c4ccc(OCc5ccccc5)cc4)cc(=O)c3c(O)c2OCc2ccccc2)C(O)C(O)C1O (stereo not drawn) [Example 9]
IC50 [1]: 27.53 ± 0.15 µM
IC50 [2]: 19.4 ± 1.11 µM
IC50 [3]: 26.8 ± 0.32 µM

O=C(Nc1ccccc1)C1OC(Oc2cc3oc(-c4ccc(OCc5ccccc5)cc4)cc(=O)c3c(O)c2OCc2ccccc2)C(O)C(O)C1O (stereo not drawn) [Example 5]
IC50 [1]: 20 ± 0.19 µM
IC50 [2]: 45.7 ± 2.15 µM
IC50 [3]: 35.37 ± 0.23 µM

COc1ccc(-c2cc(=O)c3c(O)c(OC)c(OC4OC(C(=O)Nc5ccc(C)cc5)C(O)C(O)C4O)cc3o2)cc1 (stereo not drawn) [Example 25]
IC50 [1]: 61.7 ± 2.97 µM
IC50 [2]: 39.7 ± 2.31 µM
IC50 [3]: 34.4 ± 1.89 µM

Cc1cccc(NC(=O)C2OC(Oc3cc4oc(-c5ccc(OCc6ccccc6)cc5)cc(=O)c4c(O)c3OCc3ccccc3)C(O)C(O)C2O)c1 (stereo not drawn) [Example 8]
IC50 [1]: 11.8 ± 0.34 µM
IC50 [2]: 12 ± 3.52 µM
IC50 [3]: 16.1 ± 0.57 µM

CCCNC(=O)C1OC(Oc2cc3oc(-c4ccc(OC)cc4)cc(=O)c3c(O)c2OC)C(O)C(O)C1O (stereo not drawn) [Example 31]
IC50 [1]: 21.8 ± 0.99 µM
IC50 [2]: 33 ± 1.13 µM
IC50 [3]: 41.6 ± 1.37 µM

COc1ccc(-c2cc(=O)c3c(O)c(OC)c(OC4OC(C(=O)Nc5cccc(C)c5)C(O)C(O)C4O)cc3o2)cc1 (stereo not drawn) [Example 23]
IC50 [1]: 5.49 ± 0.16 µM
IC50 [2]: 3.15 ± 0.46 µM
IC50 [3]: 4.62 ± 0.2 µM

O=C(Nc1ccc(Cl)cc1)C1OC(Oc2cc3oc(-c4ccc(OCc5ccccc5)cc4)cc(=O)c3c(O)c2OCc2ccccc2)C(O)C(O)C1O (stereo not drawn) [Example 6]
IC50 [1]: 75.88 ± 0.31 µM
IC50 [2]: 51.6 ± 0.97 µM
IC50 [3]: 81.36 ± 0.35 µM

COc1ccc(-c2cc(=O)c3c(O)c(OC)c(OC4OC(C(=O)NC(C)C)C(O)C(O)C4O)cc3o2)cc1 (stereo not drawn) [Example 32]
IC50 [1]: 28.2 ± 1.19 µM
IC50 [2]: 26.6 ± 2.19 µM
IC50 [3]: 19 ± 0.36 µM

CCCNC(=O)C1OC(Oc2cc3oc(-c4ccc(OCc5ccccc5)cc4)cc(=O)c3c(O)c2OCc2ccccc2)C(O)C(O)C1O (stereo not drawn) [Example 16]
IC50 [1]: 30.6 ± 0.57 µM
IC50 [2]: 21 ± 0.81 µM
IC50 [3]: 22.4 ± 0.38 µM
